Test results as given in patent US10508088B2, “Methods using HDAC11 inhibitors” (FORMA Therapeutics, Inc., priority 2016, dated 2019).

Molecular target: Recombinant N-terminal GST tag full-length human HDAC11 (Homo sapiens (Human), UniProt Q96DB2)
Assay: Probe binding HDAC11 assay, time resolved fluorescence (TRF)
Settings: read-out: HDAC11 IC50 Range
Protocol: The probe binding HDAC11 assay was performed using a time resolved fluorescence (TRF) assay format. Recombinant N-terminal GST tag full-length human HDAC11 was expressed and purified from baculovirus in Sf9 insect cells (SignalChem, # H93-30G-1000). Each assay was performed in 1536 black well microplates (Corning, #3936) in a final volume of 8 μL in assay buffer containing 50 mM HEPES (pH 7.5), 50 mM KCl, 50 mM NaCl, 0.5 mM GSH (L-Glutathione reduced, Sigma #G4251), 0.03% BGG (0.22 μM filtered, Sigma, #G7516-25G), and 0.01% Triton X-100 (Sigma, #T9284-10L). 100 nL of 10-point, 3-fold serial dilution in DMSO was pre-dispensed into respective wells of 1536 assay plates for a final test concentration range of 25 μM to 1.3 nM respectively. The final concentration in the assay of HDAC11 and probe (a fluorescein labeled HDAC 11 inhibitor) was 2.5 nM and 20 nM respectively. 4 μL of 2× probe and 2× anti-GST Terbium (Cisbio, #61GSTXLB) was added to assay plates followed by 4 μL of 2×HDAC11. Plates were incubated for 16 hours at room temperature before time resolved fluorescence was read on the Envision (Excitation at 340 nm, and Emission at 485 nm and 535 nm, Perkin Elmer).
Data from HDAC11 Assays were reported as percent inhibition (inh) compared with control wells based on the following equation: % inh=1−((FLU−AveLow)/(AveHigh−AveLow)) where FLU=measured time resolved fluorescence. AveLow=average time resolved fluorescence of no enzyme control (n=32). AveHigh=average time resolved fluorescence of DMSO control (n=32). IC50 values were determined by curve fitting of the standard 4 parameter logistic fitting algorithm included in the Activity Base software package: IDBS XE Designer Model205. Data is fitted using the Levenburg Marquardt algorithm.

Chain of Recombinant N-terminal GST tag full-length human HDAC11 (Q96DB2 whole entry): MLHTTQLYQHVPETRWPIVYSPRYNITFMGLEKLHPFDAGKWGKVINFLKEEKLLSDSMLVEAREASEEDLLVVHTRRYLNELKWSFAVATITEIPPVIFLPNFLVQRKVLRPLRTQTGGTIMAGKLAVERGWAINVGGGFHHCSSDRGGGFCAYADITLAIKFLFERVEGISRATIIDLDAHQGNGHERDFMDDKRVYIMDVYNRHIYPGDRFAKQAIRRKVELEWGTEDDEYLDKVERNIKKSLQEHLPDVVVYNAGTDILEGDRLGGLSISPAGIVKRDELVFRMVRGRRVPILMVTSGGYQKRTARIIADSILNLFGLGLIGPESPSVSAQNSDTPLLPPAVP

SMILES	IC50 [nM]
O=C(NO)c1cc(Nc2nc3cc(Cl)c(Cl)cc3o2)ccn1 [Example 4-6, 4-((5,6-dichlorobenzo[d]oxazol-2-yl)amino)-N-hydroxypicolinamide]	< 500
O=C(NO)c1cccc(Nc2nc3cc(C(F)(F)F)c(-c4ccc(N5CCOCC5)cc4)cc3[nH]2)c1 [Example 36-19, N-hydroxy-3-((6-(4-morpholinophenyl)-5-(trifluoromethyl)-1H-benzo[d]imidazol-2-yl)amino)benzamide]	< 500
O=C(NO)c1cccc(Nc2nc3cc(F)c(Cl)cc3[nH]2)c1 [Example 33-1, 3-((6-chloro-5-fluoro-1H-benzo[d]imidazol-2-yl)amino)-N-hydroxybenzamide]	< 500
O=C1COc2cc3[nH]c(Nc4cccc(C(=O)NO)c4)nc3cc2N1 [Example 33-18, N-hydroxy-3-((7-oxo-3,6,7,8-tetrahydroimidazo[4′,5′:4,5]benzo[1,2-b][1,4]oxazin-2-yl)amino)benzamide]	> 1000
O=C(NO)c1cccc(Nc2nc3cc4c(cc3[nH]2)OCO4)c1 [Example 33-4, 3-((5H-[1,3]dioxolo[4′,5′:4,5]benzo[1,2-d]imidazol-6-yl)amino)-N-hydroxybenzamide]	> 1000
Cn1c(Nc2cccc(C(=O)NO)c2)nc2cc(-c3cccnc3)c(C(F)(F)F)cc21 [Example 35-1, N-hydroxy-3-((1-methyl-5-(pyridin-3-yl)-6-(trifluoromethyl)-1H-benzo[d]imidazol-2-yl)amino)benzamide]	500 to 1000
COCc1cccc(-c2cc3[nH]c(Nc4cccc(C(=O)NO)c4)nc3cc2C(F)(F)F)c1 [Example 36-16, N-hydroxy-3-((6-(3-(methoxymethyl)phenyl)-5-(trifluoromethyl)-1H-benzo[d]imidazol-2-yl)amino)benzamide]	< 500
O=C(NO)c1cccc(Nc2nc3cc(Cl)c(Cl)cc3o2)n1 [Example 31-1, 6-((5,6-dichlorobenzo[d]oxazol-2-yl)amino)-N-hydroxypicolinamide]	< 500
CC(C)n1c(Nc2cccc(C(=O)NO)c2)nc2cc(C(F)(F)F)c(-c3ccccc3)cc21 [Example 16-1, N-hydroxy-3-(1-isopropyl-6-phenyl-5-(trifluoromethyl)-1H-benzo[d]imidazol-2-ylamino)benzamide]	< 500
O=C(NO)c1cccc(Nc2nc3cc(C(F)(F)F)c(-c4cc(F)ccc4CO)cc3[nH]2)c1 [Example 36-15, 3-((6-(5-fluoro-2-(hydroxymethyl)phenyl)-5-(trifluoromethyl)-1H-benzo[d]imidazol-2-yl)amino)-N-hydroxybenzamide]	< 500
CS(=O)(=O)c1cc2nc(Nc3cccc(C(=O)NO)c3)[nH]c2cc1C#N [Example 6-1, 3-(5-cyano-6-(methylsulfonyl)-1H-benzo[d]imidazol-2-ylamino)-N-hydroxybenzamide]	500 to 1000
O=C(NO)c1cc(Nc2nc3ccccc3[nH]2)cc2ccccc12 [Example 23-2, 3-((1H-benzo[d]imidazol-2-yl)amino)-N-hydroxy-1-naphthamide]	> 1000
O=C(NO)c1cccc(Nc2nc3cc([N+](=O)[O-])ccc3[nH]2)c1 [Example 33-21, N-hydroxy-3-((5-nitro-1H-benzo[d]imidazol-2-yl)amino)benzamide]	500 to 1000
O=C(NO)c1cccc(Nc2nc3cc(Cl)c(Cl)cc3s2)c1 [Example 5-1, 3-(5,6-dichlorobenzo[d]thiazol-2-ylamino)-N-hydroxybenzamide 2,2,2-trifluoroacetate]	< 500
O=C(NO)c1cc(Nc2nc3cc(Cl)c(Cl)cc3o2)ccc1F [Example 4-1, 5-(5,6-dichlorobenzo[d]oxazol-2-ylamino)-2-fluoro-N-hydroxybenzamide]	< 500
O=C(NO)c1cccc(Nc2nc3ncccc3o2)c1 [Example 32-1, N-hydroxy-3-(oxazolo[4,5-b]pyridin-2-ylamino)benzamide]	> 1000
O=C(NO)c1cccc(Nc2nc3cc(Br)c(OC(F)(F)F)cc3[nH]2)c1 [Example 33-7, 3-((5-bromo-6-(trifluoromethoxy)-1H-benzo[d]imidazol-2-yl)amino)-N-hydroxybenzamide]	< 500
O=C(NO)c1cccc(Nc2nc3cc(C(F)(F)F)ccc3[nH]2)c1 [Example 33-22, N-hydroxy-3-((5-(trifluoromethyl)-1H-benzo[d]imidazol-2-yl)amino)benzamide]	< 500

SMILES	IC50 [nM]
CN(c1cccc(C(=O)NO)c1)c1nc2cc(C#N)c(C(F)(F)F)cc2[nH]1 [Example 9-1, 3-((5-cyano-6-(trifluoromethyl)-1H-benzo[d]imidazol-2-yl)(methyl)amino)-N-hydroxybenzamide]	< 500
O=C(NO)c1cccc(Nc2nc3cc(C(F)(F)F)c(-c4cccnc4)cc3[nH]2)c1 [Example 36-2, N-hydroxy-3-((6-(pyridin-3-yl)-5-(trifluoromethyl)-1H-benzo[d]imidazol-2-yl)amino)benzamide]	< 500
O=C(NO)c1cccc(Nc2nc3cc(C(F)(F)F)c(-c4cccc(O)c4)cc3[nH]2)c1 [Example 36-10, N-hydroxy-3-((6-(3-hydroxyphenyl)-5-(trifluoromethyl)-1H-benzo[d]imidazol-2-yl)amino)benzamide]	< 500
O=C(NO)c1cccc(Nc2cc3cc(Cl)c(Cl)cc3[nH]2)c1 [Example 28-1, 3-((5,6-dichloro-1H-indol-2-yl)amino)-N-hydroxybenzamide]	< 500
O=C(NO)c1cccc(Nc2nc3cc(F)c(Br)cc3[nH]2)c1 [Example 33-16, 3-((6-bromo-5-fluoro-1H-benzo[d]imidazol-2-yl)amino)-N-hydroxybenzamide]	< 500
O=C(NO)c1cccc(Nc2nc3cc(Cl)c(Cl)cc3[nH]2)c1 [Example 33-14, 3-((5,6-dichloro-1H-benzo[d]imidazol-2-yl)amino)-N-hydroxybenzamide]	< 500
O=C(NO)c1cncc(Nc2nc3cc(Cl)c(Cl)cc3o2)c1 [Example 4-5, 5-((5,6-dichlorobenzo[d]oxazol-2-yl)amino)-N-hydroxynicotinamide]	< 500
O=C(NO)c1cccc(Nc2nc3cncnc3[nH]2)c1 [Example 30-1, 3-((9H-purin-8-yl)amino)-N-hydroxybenzamide]	> 1000
O=C(NO)c1cccc(Nc2nc3cc(-c4ccccc4)c(C(F)(F)F)cc3[nH]2)c1 [Example 36-1, N-hydroxy-3-((5-phenyl-6-(trifluoromethyl)-1H-benzo[d]imidazol-2-yl)amino)benzamide]	< 500
CC(C)n1c(Nc2cccc(C(=O)NO)c2)nc2cc(C#N)c(C(F)(F)F)cc21 [Example 15-1, 3-(5-cyano-1-isopropyl-6-(trifluoromethyl)-1H-benzo[d]imidazol-2-ylamino)-N-hydroxybenzamide]	< 500
O=C(NO)c1cccc(Nc2nc3cc4c(cc3[nH]2)OCCCO4)c1 [Example 33-8, 3-((7,8-dihydro-1H,6H-[1,4]dioxepino[2′,3′:4,5]benzo[1,2-d]imidazol-2-yl)amino)-N-hydroxybenzamide]	> 1000
O=C(NO)c1ccnc(Nc2nc3cc(Cl)c(Cl)cc3o2)n1 [Example 4-8, 2-((5,6-dichlorobenzo[d]oxazol-2-yl)amino)-N-hydroxypyrimidine-4-carboxamide]	> 1000
O=C(NO)c1cccc(Nc2nc3cc(C(F)(F)F)c(-c4ccccc4CO)cc3[nH]2)c1 [Example 36-11, N-hydroxy-3-((6-(2-(hydroxymethyl)phenyl)-5-(trifluoromethyl)-1H-benzo[d]imidazol-2-yl)amino)benzamide]	< 500
CN(C)C(=O)c1ccc(-c2cc3[nH]c(Nc4cccc(C(=O)NO)c4)nc3cc2C(F)(F)F)cc1 [Example 36-6, 4-(2-((3-(hydroxycarbamoyl)phenyl)amino)-5-(trifluoromethyl)-1H-benzo[d]imidazol-6-yl)-N,N-dimethylbenzamide]	< 500
O=C(NO)c1cccc(Nc2nc3cc(F)c(C(F)(F)F)cc3[nH]2)c1 [Example 33-5, 3-((5-fluoro-6-(trifluoromethyl)-1H-benzo[d]imidazol-2-yl)amino)-N-hydroxybenzamide]	< 500
Cn1c(Nc2cccc(C(=O)NO)c2)nc2cc(C(F)(F)F)c(C#N)cc21 [Example 11-1, 3-(6-cyano-1-methyl-5-(trifluoromethyl)-1H-benzo[d]imidazol-2-ylamino)-N-hydroxybenzamide]	< 500
NS(=O)(=O)c1ccc2[nH]c(Nc3cccc(C(=O)NO)c3)nc2c1 [Example 33-24, N-hydroxy-3-((5-sulfamoyl-1H-benzo[d]imidazol-2-yl)amino)benzamide]	> 1000
O=C(NCc1ccccc1)ONC(=O)c1cccc(Nc2nc3cc(-c4ccccc4)c(C(F)(F)F)cc3[nH]2)c1 [Example 37-1, N-((benzylcarbamoyl)oxy)-3-((5-phenyl-6-(trifluoromethyl)-1H-benzo[d]imidazol-2-yl)amino)benzamide]	< 500
